Values of other authors as cited in patent publication US6676963B1, “Ligand-targeted emulsions carrying bioactive agents” (Barnes-Jewish Hospital, priority 2000, dated 2004).
Read-outs that look alike come from different tables or passages of the source.

Settings: for solubility in water / buffer (in words): water or aqueous buffer

COc1cccc2c1C(=O)c1c(O)c3c(c(O)c1C2=O)C[C@@](O)(C(=O)CO)C[C@@H]3O[C@H]1C[C@H](N)[C@H](O)[C@H](C)O1 [Doxorubicin, doxorubicin]
solubility in water / buffer (in words): highly water soluble

CC(=O)O[C@H]1C(=O)[C@@]2(C)[C@H]([C@H](OC(=O)c3ccccc3)[C@]3(O)C[C@H](OC(=O)[C@H](O)[C@@H](NC(=O)c4ccccc4)c4ccccc4)C(C)=C1C3(C)C)[C@]1(OC(C)=O)CO[C@@H]1C[C@@H]2O [taxol, paclitaxel]
solubility in lipid emulsions (in words) (lipid emulsions such as Intralipid or Liposyn): insoluble in lipid emulsions | solubility in water / buffer (in words): insoluble in water | solubility in water / buffer (in words) (listed as paclitaxel): highly insoluble in buffer
